ChEMBL document CHEMBL5576041, “13-oxyingenol dodecanoate derivatives induce mitophagy and ferroptosis through targeting TMBIM6 as potential anti-NSCLC agents” (Eur J Med Chem, 2024)
Calls of active or inactive are those of the source. No cut-off for these calls is given here.

How the values were obtained:
HepG2 = test: Antiproliferative activity against human HepG2 cells assessed as inhibition of cell growth incubated for 24 to 72 hrs by CCK8 assay; type: functional, cell-based
A549 [1] = test: Antiproliferative activity against human A549 cells assessed as inhibition of cell growth incubated for 24 to 72 hrs by CCK8 assay; type: functional, cell-based
NCI-H460 = test: Antiproliferative activity against human NCI-H460 cells assessed as inhibition of cell growth incubated for 24 to 72 hrs by CCK8 assay; type: functional, cell-based
[2] = Selectivity index, ratio of IC50 for cytotoxicity against human BEAS-2B cells to IC50 for antiproliferative activity against human A549 cells; type: toxicity, cell-based; conditions: read-out: Ratio IC50
A549 [3] = test: Antiproliferative activity against human A549 cells assessed as inhibition of cell growth incubated for 24 hrs by CCK8 assay; type: functional, cell-based; conditions: A549, 24 h
A549 [4] = test: Antiproliferative activity against human A549 cells assessed as inhibition of cell growth incubated for 48 hrs by CCK8 assay; type: functional, cell-based; conditions: A549, 48 h
[5] = target: Bax inhibitor 1 (Homo sapiens) (UniProt P55061); test: Thermal stabilization of TMBIM6 in human A549 cells at 46 to 60 degreeC at 100 uM incubated for 2 hrs by CETSA based Western blot analysis; type: cell-based
Chain of Bax inhibitor 1 (Homo sapiens) (P55061 whole entry): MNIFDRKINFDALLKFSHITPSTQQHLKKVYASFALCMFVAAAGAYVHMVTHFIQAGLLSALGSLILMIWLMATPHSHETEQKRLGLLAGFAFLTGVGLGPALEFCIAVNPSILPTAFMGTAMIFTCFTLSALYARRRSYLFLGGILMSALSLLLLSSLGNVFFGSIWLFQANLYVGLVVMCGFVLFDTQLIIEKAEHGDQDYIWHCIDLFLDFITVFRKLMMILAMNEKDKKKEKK

[6] = target: Bax inhibitor 1 (Homo sapiens) (UniProt P55061); test: Thermal stabilization of TMBIM6 in human A549 cells at 54 to 60 degreeC at 100 uM incubated for 2 hrs by CETSA based Western blot analysis; type: cell-based
A549 [7] = test: Induction of autophagy in human A549 cells incubated for 12 hrs by MDC staining based flow cytometric analysis; type: functional, cell-based
A549 [8] = test: Induction of autophagy in human A549 cells assessed as effect on PINK1 protein expression upto 20 uM incubated for 24 hrs by Western blot analysis; type: functional, cell-based
A549 [9] = test: Induction of autophagy in human A549 cells assessed as effect on LC3II protein expression upto 20 uM incubated for 24 hrs by Western blot analysis; type: functional, cell-based
A549 [10] = test: Induction of ROS accumulation in human A549 cells incubated for 24 hrs by DCFH/C11-BODIPY probe based flow cytometric analysis; type: functional, cell-based; conditions: dose 5-20 µM
A549 [11] = test: Induction of ROS accumulation in human A549 cells at 20 uM by DCFH/C11-BODIPY probe based flow cytometric analysis; type: functional, cell-based; conditions: time 2-24 hrs, TDE = time-dependent effect
A549 [12] = test: Induction of lipid ROS accumulation in human A549 cells at 20 uM incubated for 24 hrs in presence of DFO by DCFH/C11-BODIPY probe based flow cytometric analysis; type: functional, cell-based
A549 [13] = test: Induction of lipid ROS accumulation in human A549 cells at 20 uM incubated for 24 hrs in presence of Fer-1 by DCFH/C11-BODIPY probe based flow cytometric analysis; type: functional, cell-based
A549 [14] = test: Induction of lipid ROS accumulation in human A549 cells at 20 uM incubated for 24 hrs in presence of Lip-1 by DCFH/C11-BODIPY probe based flow cytometric analysis; type: functional, cell-based
A549 [15] = test: Induction of lipid ROS accumulation in human A549 cells at 20 uM incubated for 24 hrs in presence of NAC by DCFH/C11-BODIPY probe based flow cytometric analysis; type: functional, cell-based
A549 [16] = test: Induction of ferroptosis in human A549 cells assessed as reduction in GSH content incubated for 2 to 12 hrs; type: functional, cell-based; conditions: time 2-12 hrs
A549 [17] = test: Induction of ferroptosis in human A549 cells assessed as increase in […] accumulation; type: functional, cell-based
A549 [18] = test: Induction of ferroptosis in human A549 cells assessed as increase in malondialdehyde content at 5 to 20 uM; type: functional, cell-based; conditions: dose 5-20 µM
A549 [19] = test: Activation of Nrf2-Keap1-HO-1 signaling pathway in human A549 cells assessed as increase in oxidative stress by measuring lipid ROS level at 5 to 20 uM by Western blot analysis; type: cell-based; conditions: filed as activator, dose 5-20 µM
[20] = target: T1, Cystine/glutamate transporter (Homo sapiens) (UniProt Q9UPY5); test: Inhibition of SLC7A11 in human […] cells at 5 to 20 uM by Western blot analysis; type: cell-based; conditions: A549, dose 5-20 µM
T1 sequence (whole entry): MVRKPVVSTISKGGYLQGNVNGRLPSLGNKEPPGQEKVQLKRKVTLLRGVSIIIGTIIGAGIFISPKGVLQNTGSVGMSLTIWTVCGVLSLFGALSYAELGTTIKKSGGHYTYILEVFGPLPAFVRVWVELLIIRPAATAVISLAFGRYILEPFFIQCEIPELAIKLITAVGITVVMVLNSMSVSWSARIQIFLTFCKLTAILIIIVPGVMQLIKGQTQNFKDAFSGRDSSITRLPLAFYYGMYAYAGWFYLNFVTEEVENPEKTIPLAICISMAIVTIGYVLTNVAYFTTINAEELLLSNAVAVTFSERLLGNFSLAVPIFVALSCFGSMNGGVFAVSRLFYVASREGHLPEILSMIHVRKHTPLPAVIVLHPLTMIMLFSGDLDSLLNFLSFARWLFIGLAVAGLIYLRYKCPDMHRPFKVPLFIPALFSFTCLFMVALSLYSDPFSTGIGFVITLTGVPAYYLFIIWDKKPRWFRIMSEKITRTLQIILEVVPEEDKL

A549 [21] = test: Stabilization of […] in human A549 cells assessed as reduction in polyubiquitination at 20 uM in presence of MG132 by immunoprecipitation analysis; type: cell-based
Cell membrane [22] = test: Induction of mitochondrial membrane depolarization in human A549 cells assessed as increases in mitochondrial Ca2+ concentration by Rhod-2 AM probe based flow cytometric analysis; type: cell membranes
Cell membrane [23] = test: Induction of mitochondrial membrane depolarization in human A549 cells assessed as increases in mitochondrial Ca2+ concentration incubated for 8 hrs by Rhod-2 AM probe based flow cytometric analysis; type: cell membranes
A549 [24] = test: Induction of TMBIM6-VDAC1 protein-protein interaction in human A549 cells at 20 uM by immunoprecipitation analysis; type: cell-based; conditions: filed as activator
A549 [25] = test: Downregulation of TMBIM6 protein expression in human A549 cells at 10 uM by Western blot analysis; type: functional, cell-based
A549 [26] = test: Increase in Ca2+ level in human A549 cell cytoplasm at 5 to 20 uM incubated for 8 hrs by confocal photographic analysis; type: functional, cell-based; conditions: dose 5-20 µM
[27] = target: Non-selective voltage-gated ion channel VDAC1 (Homo sapiens) (UniProt P21796); test: Activation of VDAC1 channel in human A549 cells assessed as increase in mitochondrial Ca2+ endocytosis by staining based analysis; type: cell-based; conditions: filed as opener
Chain of Non-selective voltage-gated ion channel VDAC1 (Homo sapiens) (P21796 whole entry): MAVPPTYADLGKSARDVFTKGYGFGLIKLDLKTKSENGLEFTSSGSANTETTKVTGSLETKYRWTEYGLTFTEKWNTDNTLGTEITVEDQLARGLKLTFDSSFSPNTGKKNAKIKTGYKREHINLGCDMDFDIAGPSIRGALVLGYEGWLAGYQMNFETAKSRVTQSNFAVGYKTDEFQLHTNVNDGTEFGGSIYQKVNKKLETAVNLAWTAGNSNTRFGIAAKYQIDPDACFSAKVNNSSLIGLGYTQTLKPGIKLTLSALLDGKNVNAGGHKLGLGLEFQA

[28] = target: Bax inhibitor 1 (Homo sapiens) (UniProt P55061); test: Binding affinity to TMBIM6 in human A549 cells by cluster analysis; type: cell-based
A549 [29] = test: Induction of autophagy in human A549 cells assessed as effect on PINK1 protein expression at 10 to 20 uM incubated for 24 hrs by Western blot analysis; type: functional, cell-based; conditions: dose 10-20 µM
A549 [30] = test: Induction of autophagy in human A549 cells assessed as effect on LC3II protein expression at 10 to 20 uM incubated for 24 hrs by Western blot analysis; type: functional, cell-based; conditions: dose 10-20 µM
A549 [31] = test: Induction of ferroptosis in human A549 cells assessed as increase in malondialdehyde content; type: functional, cell-based
A549 [32] = test: Activation of Nrf2-Keap1-HO-1 signaling pathway in human A549 cells assessed as increase in oxidative stress by measuring lipid ROS level at 10 to 20 uM by Western blot analysis; type: cell-based; conditions: filed as activator, dose 10-20 µM
[33] = target: T1, Cystine/glutamate transporter (Homo sapiens); test: Inhibition of SLC7A11 in human […] cells at 10 to 20 uM by Western blot analysis; type: cell-based; conditions: A549, dose 10-20 µM
Cell membrane [34] = test: Induction of mitochondrial membrane potential loss in human A549 cells at 10 to 20 uM incubated for 6 hrs by JC-1 staining based flow cytometric analysis; type: cell membranes; conditions: dose 10-20 µM
[35] = target: Bax inhibitor 1 (Homo sapiens) (UniProt P55061); test: Binding affinity to TMBIM6 in human A549 cells assessed as increase in co-localization in cytoplasm at 4 uM by immunofluorescence analysis; type: cell-based
[36] = target: Bax inhibitor 1 (Homo sapiens) (UniProt P55061); test: Competitive binding affinity to TMBIM6 in human A549 cells in presence of 2 to 6 fold of 13-oxyingenol dodecanoate by immunofluorescence analysis; type: cell-based
[37] = target: Bax inhibitor 1 (Homo sapiens) (UniProt P55061); test: Binding affinity to TMBIM6 in human A549 cells at 4 uM by pull down Western blot analysis; type: cell-based
[38] = target: Bax inhibitor 1 (Homo sapiens) (UniProt P55061); test: Competitive binding affinity to TMBIM6 in human A549 cells assessed as reduction in 13-oxyingenol dodecanoate binding to protein at 4 uM in presence of 6 fold 13-oxyingenol dodecanoate by pull down Western blot analysis; type: cell-based
[39] = target: Bax inhibitor 1 (Homo sapiens) (UniProt P55061); test: Binding affinity to TMBIM6 at Met-68 residue in human A549 cells by high-resolution mass spectrometric analysis; type: cell-based

Structure (SMILES) | IC50 (HepG2) [µM] | IC50 (A549 [1]) [µM] | IC50 (NCI-H460) [µM] | selectivity ratio [2] | Activity [5] | Activity [6] | Activity (A549 [16]) | Activity (A549 [17]) | Activity (Cell membrane [22]) | Activity (Cell membrane [23]) | Activity (A549 [24]) | Activity (A549 [25]) | Activity (A549 [26]) | Activity [27] | Activity (A549 [29]) | Activity (A549 [30]) | Activity (A549 [31]) | Activity (A549 [32]) | inhibition [33] | Activity (Cell membrane [34]) | further results
CCCCCCCCCCCC(=O)O[C@@]12C[C@@H](C)[C@]34C=C(C)[C@H](O)[C@@]3(O)[C@H](O)C(CO)=C[C@H](C4=O)[C@@H]1C2(C)C | 5.3 | 3.9 | 7 | 11.1 | Active | Active | Active | Active | Active | Active | Active | Active | Active | Active | – | – | – | – | – | – | IC50 (A549 [3]): 8.67 µM; IC50 (A549 [4]): 17.5 µM; Activity (A549 [7]): Dose-Dependent Effect; Activity (A549 [8]): Active; Activity (A549 [9]): Active; Activity (A549 [10]): Dose-Dependent Effect; Activity (A549 [11]): Tde; Activity (A549 [12]): inactive; Activity (A549 [13]): inactive; Activity (A549 [14]): inactive; Activity (A549 [15]): inactive; Activity (A549 [18]): Active; Activity (A549 [19]): Active; inhibition [20]: Active; Activity (A549 [21]): Active; Activity [28]: Active
CCCCCCCCCCCC(=O)O[C@@]12C[C@@H](C)[C@]34C=C(C)[C@H](OC(=O)NCCC)[C@@]3(O)[C@H](O)C(CO)=C[C@H](C4=O)[C@@H]1C2(C)C | 21.4 | 4.7 | 8.5 | 10.6 | Active | Active | Active | Active | Active | Active | Active | Active | Active | Active | Active | Active | Active | Active | Active | Active | –
CCCCCCCCCCCC(=O)O[C@@]12C[C@@H](C)[C@]34C=C(C)[C@H](OC(=O)c5ccc(F)cc5)[C@@]3(O)[C@H](O)C(CO)=C[C@H](C4=O)[C@@H]1C2(C)C | 21.1 | 2.6 | 20.8 | 19.8 | Active | Active | Active | Active | Active | Active | Active | Active | Active | Active | Active | Active | Active | Active | Active | Active | –
C#CCCC1(CCNC(=O)O[C@H]2C(C)=C[C@]34C(=O)[C@@H](C=C(CO)[C@@H](O)[C@]23O)[C@@H]2C(C)(C)[C@]2(OC(=O)CCCCCCCCCCC)C[C@H]4C)N=N1 | – | – | – | – | – | – | – | – | – | – | – | – | – | – | – | – | – | – | – | – | IC50 (A549 [3]): 8.1 µM; IC50 (A549 [4]): 13.8 µM; Activity [35]: Active; Activity [36]: Active; Activity [37]: Active; Activity [38]: Active; Activity [39]: Active
CCCCCCCCCCCC(=O)O[C@@]12C[C@@H](C)[C@]34C=C(C)[C@H](OC(=O)c5ccc([N+](=O)[O-])cc5)[C@@]3(O)[C@H](O)C(COC(=O)c3ccc([N+](=O)[O-])cc3)=C[C@H](C4=O)[C@@H]1C2(C)C | > 50 | 6.1 | 1 | 8.2 | Active | Active | Active | Active | Active | Active | Active | Active | Active | Active | Active | Active | Active | Active | Active | Active | –
